Consider 13 compounds from US20160318866A1, “SUBSTITUTED BIPIPERIDINYL DERIVATIVES” (Bayer Pharma Aktiengesellschaft, priority 2013, published 2016).

One data set concerns the target T1, human α2C receptor (Homo sapiens, UniProt P18825).
T1 construct: expressed in transfected cells; host or cells: CHO cells, also recombinantly expressing chimeric G protein Gαqi3 and mitochondrial obelin (mtOb)
T1 sequence (P18825 1-462): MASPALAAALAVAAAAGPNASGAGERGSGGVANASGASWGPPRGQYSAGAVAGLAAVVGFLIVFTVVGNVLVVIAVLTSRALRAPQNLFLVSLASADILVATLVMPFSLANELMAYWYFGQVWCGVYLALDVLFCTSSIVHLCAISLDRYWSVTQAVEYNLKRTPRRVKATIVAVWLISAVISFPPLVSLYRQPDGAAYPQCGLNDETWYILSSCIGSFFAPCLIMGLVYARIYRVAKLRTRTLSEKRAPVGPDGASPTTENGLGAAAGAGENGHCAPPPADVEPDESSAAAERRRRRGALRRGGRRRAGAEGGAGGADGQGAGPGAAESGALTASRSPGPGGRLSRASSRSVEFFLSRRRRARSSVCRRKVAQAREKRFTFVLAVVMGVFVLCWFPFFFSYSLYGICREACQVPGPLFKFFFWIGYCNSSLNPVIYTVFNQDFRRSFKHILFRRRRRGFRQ
As to the kind of experiment: Antagonism against the adrenoreceptor α2C (luminescence, recombinant CHO cell line). The format is cell-based. The note with it: antagonism against adrenoreceptor α2C; noradrenaline 20 nM; tested up to 10 μM; read-out: IC50. The procedure, abridged:
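CHO cells expressing human α2C receptor with chimeric Gαqi3 and mitochondrial obelin, loaded with 2.5 μg/ml coelenterazine for one day at 30 °C.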

For data set [1], the system named is diabetic (ZDFfa/fa) and healthy rats (Wistar). As to the kind of experiment: Assay of perfusion-enhancing substances (microcirculation), laser doppler at the paw. Type of data set: in vivo, rat. The following applies: single oral dose. An excerpt: In diabetic (ZDFfa/fa) and healthy rats (Wistar), a laser doppler probe was fastened under anaesthesia conditions (isoflurane anaesthesia) at the sole of the paw for measuring cutaneous microcirculation. The test animals were once treated orally with the test substances. During the experiment, microperfusion and temperature of the lower extremities were documented continuously. Here, a temperature-sensitive laser doppler probe (Periflux, O2C) was fastened with adhesive to the paws of the animals, allowing the measurement of microperfusion and skin temperature. The microcirculation measurement values were measured on both paws 30 min after oral administration of the test substance. […] Also stated is the MED for the significant increase of skin temperature (ttest).

The next data set concerns adult female Wistar rats. As to the kind of experiment: Radiotelemetric measurement of blood pressure and heart rate of conscious rats. Type of data set: in vivo, rat. The following applies: 10 mg/kg, oral, telemetry over 24 hours. An excerpt: A commercially available telemetry system from Data Sciences International DSI, USA, was employed for the measurements on conscious rats described below. The system consists of 3 main components: (1) implantable transmitters (Physiotel® telemetry transmitter), (2) receivers (Physiotel® receiver), which are linked via a multiplexer (DSI Data Exchange Matrix) to a (3) data acquisition computer. The telemetry system makes it possible to continuously record blood pressure, heart rate and body motion of conscious animals in their usual habitat.
The studies were conducted on adult female Wistar rats with a body weight of >200 g. After transmitter implantation, the experimental animals were housed singly in type III Makrolon® cages. They had free access to standard feed and water. The day/night rhythm in the test laboratory was set by changing the illumination of the room.
The telemetry transmitters used (PA-C40, DSI) were surgically implanted under aseptic conditions in the experimental animals at least 14 days before the first experimental use.
For the implantation, the fasted animals were anaesthetized with isoflurane (IsoFlo®, Abbott, initiation 5%, maintenance 2%) and shaved and disinfected over a large area of their abdomens. […]
Each of the instrumented rats living in the system was assigned a separate receiving antenna (RPC-1 Receiver, DSI). […] The signals emitted were detected online by a data acquisition system (Dataquest™ A.R.T. for Windows, DSI) and processed accordingly.
In the standard procedure, the following were measured for 10-second periods in each case: (1) systolic blood pressure (SBP), (2) diastolic blood pressure (DBP), (3) mean arterial pressure (MAP), (4) heart rate (HR) and (5) activity (ACT). These parameters were measured over 24 hours after administration.
The acquisition of measurements was repeated under computer control at 5-minute intervals. The source data obtained as absolute values were corrected in the diagram with the currently measured barometric pressure (Ambient Pressure Reference Monitor, APR-1, DSI). […]

SMILES strings stand for the structures. Counter-ions that a name gives are not always drawn.

One may read the IC50 as the point on the concentration scale where inhibition reaches its midpoint. On to `CC(C)(O)c1ccc(C(=O)N2CCC(N3CCCC(OCC4CCC4)C3)CC2)cc1` (stereo not shown) [Example 111, [3-(Cyclobutylmethoxy)-1,4′-bipiperidin-1-yl][4-(2-hydroxypropan-2-yl)phenyl]methanone], for which, on human α2C receptor, the IC50 was 10 nM.

Take `CC(C)(O)c1ccc(C(=O)N2CCC(N3CCCC(OC4CC4)C3)CC2)cc1` (stereo not shown) [Example 112, 3-(Cyclopropyloxy)-1,4′-bipiperidin-1′-yl][4-(2-hydroxypropan-2-yl)phenyl]methanone formic acid salt]: the IC50 on human α2C receptor stood at 358 nM.

Take `C[C@@H]1CCCN(C2CCN(C(=O)c3ccc(C(C)(C)O)c(F)c3)CC2)C1` [Example 113, [3-Fluoro-4-(2-hydroxypropan-2-yl)phenyl][(3R)-3-methyl-1,4′-bipiperidin-1′-yl]methanone]: the IC50 on human α2C receptor is 33 nM.

Take `CCC1CCCN(C2CCN(C(=O)c3ccc(C(C)(C)O)cc3)CC2)C1` (stereo not shown) [Example 114, [3-Ethyl-1,4′-bipiperidin-1′-yl][4-(2-hydroxypropan-2-yl)phenyl]methanone]: the half-inhibitory concentration (IC50) on human α2C receptor is 72 nM.

On to `CC(C)(O)c1ccc(C(=O)N2CCC(N3CCCC(COC4CC4)C3)CC2)cc1` (stereo not shown) [Example 118, {3-[(Cyclopropyloxy)methyl]-1,4′-bipiperidin-1′-yl}[4-(2-hydroxypropan-2-yl)phenyl]methanone], for which the concentration for half-maximal inhibition (IC50) at human α2C receptor turned out to be 8 nM.

On to `COC(C)(C)c1ccc(C(=O)N2CCC(N3CCCC(COC(C)(C)C)C3)CC2)cc1` (stereo not shown) [Example 119, [3-(tert-Butoxymethyl)-1,4′-bipiperidin-1′-yl][4-(2-methoxypropan-2-yl)phenyl]methanone], for which, on human α2C receptor, the IC50 turned out to be 16 nM.

In the case of `CCOCC1CCCN(C2CCN(C(=O)c3ccc(C(C)(C)O)cc3)CC2)C1` (stereo not shown) [Example 120, [3-(Ethoxymethyl)-1,4′-bipiperidin-1′-yl][4-(2-hydroxypropan-2-yl)phenyl]methanone], the IC50 on human α2C receptor is 10 nM.

Take `COC(C)(C)c1ccc(C(=O)N2CCC(N3CCCC(OCC4CC4)C3)CC2)cc1` (stereo not shown) [Example 122, [3-(Cyclopropylmethoxy)-1,4′-bipiperidin-1′-yl][4-(2-methoxypropan-2-yl)phenyl]methanone]: the IC50 at human α2C receptor came to 9 nM.

With `O=C(c1ccc(C2(O)COC2)cc1)N1CCC(N2CCCC(OCC3CC3)C2)CC1` (stereo not shown) [Example 124, [3-(Cyclopropylmethoxy)-1,4′-bipiperidin-1′-yl][4-(3-hydroxyoxetan-3-yl)phenyl]methanone], the IC50 at human α2C receptor came to 39 nM.

Regarding `CC(C)(O)c1ccc(C(=O)N2CCC(N3CCCC(C4CC4)C3)CC2)cc1` (stereo not shown) [Example 126, (3-Cyclopropyl-1,4′-bipiperidin-1′-yl)[4-(2-hydroxypropan-2-yl)phenyl]methanone], the IC50 on human α2C receptor stood at 12 nM.

Turning to `CC(C)(O)c1ccc(C(=O)N2CCC(N3CCCC(OCCOC(F)(F)F)C3)CC2)cc1` (stereo not shown) [Example 127, [4-(2-Hydroxypropan-2-yl)phenyl]{3-[2-(trifluoromethoxy)ethoxy]-1,4′-bipiperidin-1′-yl}methanone], at human α2C receptor, the IC50 came out at 154 nM.

As for `CC(C)(O)c1ccc(C(=O)N2CCC(N3CCCC(OCC4CC4)C3)CC2)cc1` (stereo not shown) [Example 128, [3-(Cyclopropylmethoxy)-1,4′-bipiperidin-1′-yl][4-(2-hydroxypropan-2-yl)phenyl]methanone], on human α2C receptor, the IC50 was found to be 36 nM.

Consider `COC[C@@]1(C)CCCN2CCc3c(oc4ccccc34)[C@@H]21` [ORM-12741, reference compound], for which the “factor by which microcirculation is improved at this dose compared to placebo” value in data set [1] (at the MED, 30 min after administration) was 1.9 x. In data set [1] (minimum effective dose for significant increase of skin temperature (ttest)), the “MED [mg/kg] skin temperature” value is given as 0.01 mg/kg. The “MED [mg/kg] microcirculation” value in data set [1] (minimum effective dose for significantly improved microcirculation vs placebo, 30 min after administration) was found to be 0.1 mg/kg. Further, in the data set on adult female Wistar rats, the blood pressure entry is reported as “additional reduction in blood pressure”.
